Reference: paper PMC11239005, “Preclinical studies of RA475, a guanidine-substituted spirocyclic candidate RPN13/ADRM1 inhibitor for treatment of ovarian cancer” (PLOS ONE, 2024)

Columns and labels:
[1] = Stability in human plasma; format: in vitro ADME; settings: 10 μM, 1 h at 37°C
Protocol: (§1) Human and mouse liver microsomes and NADPH regenerating system solutions were purchased from Corning Life Sciences (Tewsbury, MA). Human and mouse K2EDTA-treated plasma was purchased from BioIVT (Westbury, NY). Metabolic studies in liver microsomes (0.125 mg/mL) were conducted in 1x PBS (pH 7.4), NADPH-generating system, and 10 μM RA475 in a final volume of 250 μL. An incubation mixture with or without NADPH-generating system, as well as a neat solution prepared without microsomes and NADPH-generating system was used. RA475 was added at the same concentration level into human and mouse EDTA plasma. All reactions were initiated with the addition of RA475. Incubations were performed in glass tubes maintained at 37°C in a shaker bath. At 0, 30, and 60 min, 10 μL samples were withdrawn from the reaction mixture, and 0.5 mL of acetonitrile containing internal standard was added to each. Samples were vortex-mixed and subjected to centrifugation for 5 min at 1430 x g. A 10 μL aliquot of the supernatant was injected onto the LC-MS/MS instrument for qualitative analysis using a temperature-controlled autosampling device operating at 5°C (See Pharmacokinetic section).

[2] = Stability in human liver microsomes; format: in vitro ADME; settings: with or without NADPH, over 1 h
Protocol: as §1

[3] = Mouse plasma protein binding, equilibrium dialysis; format: in vitro ADME; settings: pH 7.4, dialysis 5 h
Protocol: (§2) The assay was performed in a multiple-use 96-well dialysis unit (HTD96b dialyzer). Each individual well unit consisted of 2 chambers separated by a vertically aligned dialysis membrane of predetermined pore size (MWCO 12–14 kDa). 120 μL of non-diluted plasma spiked with the compound (1 μM, final DMSO concentration 1%) was added to one chamber, and the same volume of PBS buffer pH 7.4 to the other chamber. The HTD96b dialyzer was covered with adhesive sealing film and incubated 5 h at 37°C while shaking at 100 rpm. For sample preparation, an aliquot of the contents of each chamber was mixed with the same volume of the blank opposite matrix. In order to define non-specific loss of the compound during this assay, a standard solution was created by mixing an aliquot of spiked plasma with blank buffer without dialysis. Two aliquots of the standard solution were incubated at 37°C, shaking at 100 rpm for 5 h (recovery samples). The other two aliquots were immediately diluted with acetonitrile and stored at 4°C until analysis (stability samples). All samples were diluted 5-fold with internal standard diluted in 100% methanol with subsequent plasma proteins sedimentation by centrifuging at 6000 rpm for 5 minutes. Supernatants were analyzed using LC-MS/MS. The percentage of plasma protein bound compound, recovery and stability were calculated using following equations. […]

[4] = biological target: human serum albumin protein (Homo sapiens, UniProt P02768); assay: Human serum albumin protein binding; format: in vitro ADME; settings: 1 μM, dialysis 5 h
Protocol: as §2

[5] = test system: spontaneous genetically-engineered peritoneal tumor (shp53, AKT, c-Myc); assay: Spontaneous GEMM of primary peritoneal/ovarian cancer; format: in vivo, mouse; settings: C57BL/6
Protocol: To induce IP tumor formation in immunocompetent mice, oncogenes (shp53, AKT, c-Myc), luciferase and the Sleeping Beauty (SB) transposase (10 μg/plasmid) were diluted in 500 μL of PBS and injected IP into female C57BL/6 mice. The mice were anesthetized by intramuscular injection of 50–100μL of a cocktail of ketamine 16 mg/mL / 3 mg/mL xylazine. The plasmid-injected mice were electroporated (EP) by the BTX ECM 830 square wave EP generator (BTX) (5 pulses, 200 V for 100 ms/pulse, 100 ms intervals between each pulse) with the caliper electrode (BTX) held across the waist of mouse. The mice were followed by IVIS imaging weekly for tracking tumor growth. The mice were sacrificed when the bioluminescence signal reached 10^9 photons/sec/cm^2/sr, or had enlarged abdomens due to the production of ascites, or had health conditions and/or criteria under which early euthanasia was required by the protocol. To track peritoneal tumor growth, bioluminescence imaging was performed by the IVIS Spectrum2000 (PerkinElmer) as the plasmid expressing SB transposase also produces luciferase. Briefly, the mice were injected IP with D-luciferin (GoldBio). After 10 min, the mice were anesthetized with isoflurane, and imaged by the IVIS Spectrum under the auto exposure mode. Bioluminescence in the peritoneal region was quantified as total photon counts/sec/cm^2/sr using Living Image 3.0 Software (Perkin Elmer).
GEMM better mimic the spontaneous development of cancers in an immune competent host than transplantable tumor lines. Female C57BL/6 mice were co-injected IP with sleeping beauty vector and plasmids expressing carrying shp53, AKT, c-Myc and firefly luciferase genes, followed by electroporation (EP) to deliver these plasmid DNA into the peritoneal cavity cells wherein they integrate randomly into their genome. After 7 days mice were imaged by IVIS200 for bioluminescence and randomized. Four groups (n = 8) were treated IP with vehicle or RA475 (40mg/kg, IP, every 3 days) or Cisplatin (5 mg/Kg, once a week) or the combination of RA475 (40mg/Kg, IP, every 3 days) plus Cisplatin (5 mg/Kg, once a week). […] While cisplatin reduced tumor growth, it led to severe toxicity including weight loss >20% that was not evident with RA475 alone.
Fig 7 Administration of RA475, cisplatin or the combination to mice bearing spontaneous, genetically-engineered model ovarian/peritoneal cancer. Female C57BL/6 mice were co-injected IP with sleeping beauty vector and plasmids expressing carrying shp53, AKT, c-Myc and firefly luciferase genes, followed by electroporation (EP) to deliver these plasmid DNA into the peritoneal cavity cells wherein they integrate randomly into their genome. After 7 days mice were imaged by Xenogen IVIS200 for bioluminescence and randomized. […]

[6] = 1 h; Up284 not in this paper's method, no reference at the place; cited from earlier work
[7] = RA475 40 mg/kg IP every 3 days (12 doses), cisplatin 5 mg/Kg weekly (5 doses alone, 3 in combination)

human serum albumin protein, sequence (P02768 25-609): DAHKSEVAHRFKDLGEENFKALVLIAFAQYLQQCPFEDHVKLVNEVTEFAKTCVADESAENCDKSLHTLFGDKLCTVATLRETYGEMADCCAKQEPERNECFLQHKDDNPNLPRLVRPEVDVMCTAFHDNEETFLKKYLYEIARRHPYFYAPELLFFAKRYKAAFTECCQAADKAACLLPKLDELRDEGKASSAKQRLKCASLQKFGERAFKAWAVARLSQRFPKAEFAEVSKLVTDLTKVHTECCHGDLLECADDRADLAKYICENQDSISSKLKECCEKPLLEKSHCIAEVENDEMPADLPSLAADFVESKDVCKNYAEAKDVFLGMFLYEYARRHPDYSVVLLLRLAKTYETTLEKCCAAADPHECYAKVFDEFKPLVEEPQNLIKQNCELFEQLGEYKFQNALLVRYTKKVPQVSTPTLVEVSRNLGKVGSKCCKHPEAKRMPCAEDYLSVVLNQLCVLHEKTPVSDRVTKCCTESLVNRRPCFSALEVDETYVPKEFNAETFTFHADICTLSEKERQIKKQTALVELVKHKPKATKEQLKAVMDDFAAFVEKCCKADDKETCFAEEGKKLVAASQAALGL

Compound: Cl.Cl.N#Cc1ccc(/C=C2/C(=O)/C(=C/c3ccc(C#N)cc3)C23CCN(C(=N)N)CC3)cc1 [RA475, 1,3-bis((E)-4-cyanobenzylidene)-2-oxo-7-azaspiro[3.5]nonane-7-carboximidamide dihydrochloride]
- stability in plasma [1]: did not degrade
- degradation in liver microsomes [2]: < 10%
- fraction unbound at 5 h, 1 μM [3]: < 0.01
- binding to human serum albumin protein [4]: 93.8%
- survival [5, 7]: extended survival to a similar extent as cisplatin alone
- tumor burden by bioluminescence [5, 7]: delayed but did not significantly reduce tumor burden
- weight loss ([5]; RA475 40 mg/kg IP every 3 days, cisplatin 5 mg/Kg weekly): not evident

Compound: N#Cc1ccc(/C=C2/C(=O)/C(=C/c3ccc(C#N)cc3)C23CCNCC3)cc1 [Up284, reference compound]
- present after 1 h in liver microsomes [6]: 52%
